Where a chain is given by its changes, count along the chain named. Numbers in names are those of the source.
B1: P. stipitis XR (xylose reductase, XYL1) (Scheffersomyces stipitis CBS 6054) (protein)
chain: MPSIKLNSGYDMPAVGFGCWKVDVDTCSEQIYRAIKTGYRLFDGAEDYANEKLVGAGVKKAIDEGIVKREDLFLTSKLWNNYHHPDNVEKALNRTLSDLQVDYVDLFLIHFPVTFKFVPLEEKYPPGFYCGKGDNFDYEDVPILETWKALEKLVKAGKIRSIGVSNFPGALLLDLLRGATIKPSVLQVEHHPYLQQPRLIEFAQSRGIAVTAYSSFGPQSFVELNQGRALNTSPLFENETIKAIAAKHGKSPAQVLLRWSSQRGIAIIPKSNTVPRLLENKDVNSFDLDEQDFADIAKLDINLRFNDPWDWDKIPIFV
notes: native full-length XYL1 from plasmid pY7, chromosomally integrated in S. cerevisiae TMB 3044 (gre3 deleted); crude cell extract
B2: P. stipitis XR (xylose reductase, XYL1) (Scheffersomyces stipitis CBS 6054; K270M) (protein)
chain: B1 chain with K270M
notes: as for B1
B3: P. stipitis XR (xylose reductase, XYL1) (Scheffersomyces stipitis CBS 6054; K270R) (protein)
chain: B1 chain with K270R
notes: as for B1

Assays:
[1] = molecular target: T1, P. stipitis XR (xylose reductase, XYL1) (Scheffersomyces stipitis, UniProt P31867, K270R); experiment: NAD(P)H absorbance at […] nm, initial rates fitted to compulsory-order ternary-complex equation; format: biochemical; conditions: crude extract, xylose co-substrate varied, pH 7.0 triethanolamine, 30°C; kinetic dissociation constant; read-out: KiA
T1 construct: native full-length XYL1 from plasmid pY7, chromosomally integrated in S. cerevisiae TMB 3044 (gre3 deleted); crude cell extract

[2] = molecular target: T2, P. stipitis XR (xylose reductase, XYL1) (Scheffersomyces stipitis, UniProt P31867); experiment: as above; format: biochemical; conditions: crude extract, xylose co-substrate varied, pH 7.0 triethanolamine, 30°C; kinetic dissociation constant; read-out: KiA
T2 construct: native full-length XYL1 from plasmid pY7, chromosomally integrated in S. cerevisiae TMB 3044 (gre3 deleted); crude cell extract

[3] = molecular target: T3, P. stipitis XR (xylose reductase, XYL1) (Scheffersomyces stipitis, UniProt P31867, K270M); experiment: as above; format: biochemical; conditions: crude extract, xylose co-substrate varied, pH 7.0 triethanolamine, 30°C; kinetic dissociation constant; read-out: KiA
T3 construct: native full-length XYL1 from plasmid pY7, chromosomally integrated in S. cerevisiae TMB 3044 (gre3 deleted); crude cell extract

[4] = substrate: NC(=O)C1=CN([C@@H]2O[C@H](COP(=O)(O)OP(=O)(O)OC[C@H]3O[C@@H](n4cnc5c(N)ncnc54)[C@H](O)[C@@H]3O)[C@@H](O)[C@H]2O)C=CC1; experiment: cells, lysate or membranes; format: biochemical, Scheffersomyces stipitis; conditions: crude extract, xylose co-substrate varied, pH 7.0 triethanolamine, 30°C, varied: cofactor
[5] = substrate: NC(=O)C1=CN([C@@H]2O[C@H](COP(=O)(O)OP(=O)(O)OC[C@H]3O[C@@H](n4cnc5c(N)ncnc54)[C@H](OP(=O)(O)O)[C@@H]3O)[C@@H](O)[C@H]2O)C=CC1; experiment: cells, lysate or membranes; format: biochemical, Scheffersomyces stipitis; conditions: crude extract, xylose co-substrate varied, pH 7.0 triethanolamine, 30°C, varied: cofactor

T1 sequence (P31867 whole entry K270R): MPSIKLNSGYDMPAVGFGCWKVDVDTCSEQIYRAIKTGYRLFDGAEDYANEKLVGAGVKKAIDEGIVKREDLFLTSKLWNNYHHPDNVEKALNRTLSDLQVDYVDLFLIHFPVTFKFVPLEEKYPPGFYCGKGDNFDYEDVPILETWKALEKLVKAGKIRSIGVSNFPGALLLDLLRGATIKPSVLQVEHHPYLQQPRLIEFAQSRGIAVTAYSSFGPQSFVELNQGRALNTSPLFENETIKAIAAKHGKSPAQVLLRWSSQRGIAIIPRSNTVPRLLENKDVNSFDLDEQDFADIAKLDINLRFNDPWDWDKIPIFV
T3 sequence (P31867 whole entry K270M): as the sequence (P31867 whole entry K270R) above, with R270M counted along it

Row | Molecule | Kd [1] | Kd [2] | Kd [3] | Km [4] | Km [5]
1 | NC(=O)C1=CN([C@@H]2O[C@H](COP(=O)(O)OP(=O)(O)OC[C@H]3O[C@@H](n4cnc5c(N)ncnc54)[C@H](O)[C@@H]3O)[C@@H](O)[C@H]2O)C=CC1 [NADH] | 57.4 ± 34.9 µM | 25.9 ± 11.7 µM |  |  | 
2 | NC(=O)C1=CN([C@@H]2O[C@H](COP(=O)(O)OP(=O)(O)OC[C@H]3O[C@@H](n4cnc5c(N)ncnc54)[C@H](OP(=O)(O)O)[C@@H]3O)[C@@H](O)[C@H]2O)C=CC1 [NADPH] | 22.9 ± 17.6 µM | 1.4 ± 1.2 µM | 293 ± 169 µM |  | 
3 | B1 |  |  |  | 28.7 ± 5.4 µM | 1.0 ± 0.6 µM
4 | B2 |  |  |  |  | 290 ± 78.6 µM
5 | B3 |  |  |  | 62.8 ± 18.7 µM | 25.8 ± 9.1 µM
